# Experiments:
# Test in all cases: relative viability (nuclei count vs DMSO), 5 days (fraction); higher = more cells survive
# HARA = tested on: HARA
# Method in brief: (§1)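 After 5 days of treatment, lung cancer cells in 1536-well plates were fixed and stained in a single step (final 0.05% Triton X-100, 1% formaldehyde, 1 ug/ml Hoechst) and their nuclei counted on 4× images. Treatment had been applied by pin tool the day after seeding as one drug alone or as a fixed anchor-drug dose with five library-drug doses (not always all listed) in √10 steps. Relative viability is the nuclei count of treated wells divided by that of vehicle wells, and values are medians of duplicate plates.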
# 201T = tested on: 201T
# Method in brief: as §1
# LXF-289 = tested on: LXF-289
# Method in brief: as §1
# EMC-BAC-2 = tested on: EMC-BAC-2
# Method in brief: as §1
# H3255 = tested on: H3255
# Method in brief: as §1
# RERF-LC-KJ = tested on: RERF-LC-KJ
# Method in brief: as §1
# NCI-H2126 = tested on: NCI-H2126
# Method in brief: as §1
# LOU-NH91 = tested on: LOU-NH91
# Method in brief: as §1
# LU99A = tested on: LU99A
# Method in brief: as §1
# NCI-H2087 = tested on: NCI-H2087
# Method in brief: as §1
# NCI-H1563 = tested on: NCI-H1563
# Method in brief: as §1
# HOP-62 = tested on: HOP-62
# Method in brief: as §1
# NCI-H1993 = tested on: NCI-H1993
# Method in brief: as §1
# UMC-11 = tested on: UMC-11
# Method in brief: as §1
# BEN = tested on: BEN
# Method in brief: as §1
# NCI-H650 = tested on: NCI-H650
# Method in brief: as §1
# COR-L 105 = tested on: COR-L 105
# Method in brief: as §1
# LC-2-ad = tested on: LC-2-ad
# Method in brief: as §1
# HCC-78 = tested on: HCC-78
# Method in brief: as §1
smiles,measurement,setting,value
Cc1csc(=NC2CCCCC2)n1/N=C/c1ccc(O)c(O)c1O [MIM1] + CC(C)C[C@H](NC(=O)[C@H](Cc1ccccc1)NC(=O)c1cnccn1)B(O)O [Bortezomib] (partner 0.002 µM),relative viability,HARA; first compound 0.2 µM,1.09
same,relative viability,HARA; first compound 0.6325 µM,1.1
same,relative viability,HARA; first compound 2 µM,1.2
same,relative viability,HARA; first compound 6.325 µM,1.08
same,relative viability,HARA; first compound 20 µM,0.127
same,relative viability,201T; first compound 0.2 µM,1.09
same,relative viability,201T; first compound 0.6325 µM,1.08
same,relative viability,201T; first compound 2 µM,1.08
same,relative viability,201T; first compound 6.325 µM,0.779
same,relative viability,201T; first compound 20 µM,0.82
same,relative viability,LXF-289; first compound 0.2 µM,0.986
same,relative viability,LXF-289; first compound 0.6325 µM,0.791
same,relative viability,LXF-289; first compound 2 µM,1.03
same,relative viability,LXF-289; first compound 6.325 µM,0.826
same,relative viability,LXF-289; first compound 20 µM,0.634
same,relative viability,EMC-BAC-2; first compound 0.2 µM,1.08
same,relative viability,EMC-BAC-2; first compound 0.6325 µM,0.822
same,relative viability,EMC-BAC-2; first compound 2 µM,1.08
same,relative viability,EMC-BAC-2; first compound 6.325 µM,0.996
same,relative viability,EMC-BAC-2; first compound 20 µM,0.259
same,relative viability,H3255; first compound 0.2 µM,0.861
same,relative viability,H3255; first compound 0.6325 µM,0.634
same,relative viability,H3255; first compound 2 µM,0.666
same,relative viability,H3255; first compound 6.325 µM,0.538
same,relative viability,H3255; first compound 20 µM,0.24
same,relative viability,RERF-LC-KJ; first compound 0.2 µM,1.08
same,relative viability,RERF-LC-KJ; first compound 0.6325 µM,1.29
same,relative viability,RERF-LC-KJ; first compound 2 µM,0.852
same,relative viability,RERF-LC-KJ; first compound 6.325 µM,0.601
same,relative viability,RERF-LC-KJ; first compound 20 µM,0.264
same,relative viability,NCI-H2126; first compound 0.2 µM,1.13
same,relative viability,NCI-H2126; first compound 0.6325 µM,1.1
same,relative viability,NCI-H2126; first compound 2 µM,1.13
same,relative viability,NCI-H2126; first compound 6.325 µM,1.03
same,relative viability,NCI-H2126; first compound 20 µM,1
same,relative viability,LOU-NH91; first compound 0.2 µM,0.462
same,relative viability,LOU-NH91; first compound 0.6325 µM,0.53
same,relative viability,LOU-NH91; first compound 2 µM,0.447
same,relative viability,LOU-NH91; first compound 6.325 µM,0.35
same,relative viability,LOU-NH91; first compound 20 µM,0.267
same,relative viability,LU99A; first compound 0.2 µM,1.08
same,relative viability,LU99A; first compound 0.6325 µM,1.08
same,relative viability,LU99A; first compound 2 µM,1.1
same,relative viability,LU99A; first compound 6.325 µM,0.987
same,relative viability,LU99A; first compound 20 µM,0.341
same,relative viability,NCI-H2087; first compound 0.2 µM,0.753
same,relative viability,NCI-H2087; first compound 0.6325 µM,0.743
same,relative viability,NCI-H2087; first compound 2 µM,0.666
same,relative viability,NCI-H2087; first compound 6.325 µM,0.586
same,relative viability,NCI-H2087; first compound 20 µM,0.498
same,relative viability,NCI-H1563; first compound 0.2 µM,0.894
same,relative viability,NCI-H1563; first compound 0.6325 µM,0.96
same,relative viability,NCI-H1563; first compound 2 µM,0.744
same,relative viability,NCI-H1563; first compound 6.325 µM,0.563
same,relative viability,NCI-H1563; first compound 20 µM,0.465
same,relative viability,HOP-62; first compound 0.2 µM,1.04
same,relative viability,HOP-62; first compound 0.6325 µM,0.611
same,relative viability,HOP-62; first compound 2 µM,0.746
same,relative viability,HOP-62; first compound 6.325 µM,0.494
same,relative viability,HOP-62; first compound 20 µM,0.116
same,relative viability,NCI-H1993; first compound 0.2 µM,1.18
same,relative viability,NCI-H1993; first compound 0.6325 µM,1.03
same,relative viability,NCI-H1993; first compound 2 µM,1.11
same,relative viability,NCI-H1993; first compound 6.325 µM,0.774
same,relative viability,NCI-H1993; first compound 20 µM,0.473
same,relative viability,UMC-11; first compound 0.2 µM,0.646
same,relative viability,UMC-11; first compound 0.6325 µM,0.389
same,relative viability,UMC-11; first compound 2 µM,0.774
same,relative viability,UMC-11; first compound 6.325 µM,0.364
same,relative viability,UMC-11; first compound 20 µM,0.145
same,relative viability,BEN; first compound 0.2 µM,0.719
same,relative viability,BEN; first compound 0.6325 µM,1.01
same,relative viability,BEN; first compound 2 µM,0.929
same,relative viability,BEN; first compound 6.325 µM,0.735
same,relative viability,BEN; first compound 20 µM,0.183
same,relative viability,NCI-H650; first compound 0.2 µM,0.769
same,relative viability,NCI-H650; first compound 0.6325 µM,0.73
same,relative viability,NCI-H650; first compound 2 µM,0.682
same,relative viability,NCI-H650; first compound 6.325 µM,0.832
same,relative viability,NCI-H650; first compound 20 µM,0.296
same,relative viability,COR-L 105; first compound 0.2 µM,0.789
same,relative viability,COR-L 105; first compound 0.6325 µM,0.82
same,relative viability,COR-L 105; first compound 2 µM,0.719
same,relative viability,COR-L 105; first compound 6.325 µM,0.54
same,relative viability,COR-L 105; first compound 20 µM,0.278
same,relative viability,LC-2-ad; first compound 0.2 µM,1.06
same,relative viability,LC-2-ad; first compound 0.6325 µM,0.545
same,relative viability,LC-2-ad; first compound 2 µM,0.986
same,relative viability,LC-2-ad; first compound 6.325 µM,0.383
same,relative viability,LC-2-ad; first compound 20 µM,0.201
same,relative viability,HCC-78; first compound 0.2 µM,0.491
same,relative viability,HCC-78; first compound 0.6325 µM,0.555
same,relative viability,HCC-78; first compound 2 µM,0.559
same,relative viability,HCC-78; first compound 6.325 µM,0.418
same,relative viability,HCC-78; first compound 20 µM,0.4

# Source: the supplement of paper PMC10307832
